Results on seven cell lines are retold here after the supplement of paper PMC10307832.

Common to all, as to test: relative viability (nuclei count vs DMSO), 5 days (fraction); higher = more cells survive
Compound in assay [1]: C1=CC=C(C(=C1)C2=CC=C(C=C2)C3=CSC4=C3C(=C(C(=O)N4)C#N)O)O + O=C(c1cc(Cc2n[nH]c(=O)c3ccccc23)ccc1F)N1CCN(C(=O)C2CC2)CC1 [Olaparib] (partner 8 µM)
The method, boiled down:
(§1)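 One day after seeding in 1536-well plates, lung cancer cell lines were dosed by pin tool. Dosing was either single-drug or a fixed anchor-drug dose plus five library-drug doses (not always all listed) in √10 steps. After 5 days, nuclei were stained in one fix-and-stain step and counted on 4× images, and relative viability is the nuclei count of treated wells over that of vehicle wells, given as the median of duplicate plates.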

Compound in the assay “TGX 221 + Foretinib”: CC1=CN2C(=O)C=C(N=C2C(=C1)C(C)NC3=CC=CC=C3)N4CCOCC4 [TGX 221] + COc1cc2c(Oc3ccc(NC(=O)C4(C(=O)Nc5ccc(F)cc5)CC4)cc3F)ccnc2cc1OCCCN1CCOCC1 [Foretinib] (partner 0.25 µM)
The method, boiled down:
as §1

Compound in assay [2]: O=C(CCCCCCNC(=O)c1cnc(N(c2ccccc2)c2ccccc2)nc1)NO [Ricolinostat] + Nc1ncn([C@H]2C[C@H](O)[C@@H](CO)O2)c(=O)n1 [Decitabine] (partner 2 µM)
The method, boiled down:
as §1

Compound in the assay “TGX 221 + Palbociclib”: CC1=CN2C(=O)C=C(N=C2C(=C1)C(C)NC3=CC=CC=C3)N4CCOCC4 [TGX 221] + CC(=O)c1c(C)c2cnc(Nc3ccc(N4CCNCC4)cn3)nc2n(C2CCCC2)c1=O [Palbociclib] (partner 0.5 µM)
The method, boiled down: as §1

As for NCI-H1651, the relative viability in assay [1] (first compound 0.08 µM) was 0.185; in assay [1] (first compound 0.253 µM), 0.182; in assay [1] (first compound 0.8 µM), 0.197; in assay [1] (first compound 2.53 µM), 0.186; in assay [1] (first compound 8 µM) it was 0.16; with TGX 221 + Foretinib (first compound 0.08 µM), 0.768. Further, the relative viability with TGX 221 + Foretinib (first compound 0.253 µM) amounted to 0.611; in the assay with TGX 221 + Foretinib (first compound 0.8 µM) it was 0.729; with TGX 221 + Foretinib (first compound 2.53 µM) it was 0.586; with TGX 221 + Foretinib (first compound 8 µM), 0.609; in assay [2] (first compound 0.08 µM), 0.466; in assay [2] (first compound 0.253 µM), 0.644. For the same cell line, the relative viability in assay [2] (first compound 0.8 µM) was 0.56; in assay [2] (first compound 2.53 µM), 0.521; in the assay with TGX 221 + Palbociclib (first compound 0.08 µM) it was 0.525; in the assay with TGX 221 + Palbociclib (first compound 0.253 µM) it was 0.465; with TGX 221 + Palbociclib (first compound 0.8 µM) it was 0.505; with TGX 221 + Palbociclib (first compound 2.53 µM), 0.489. In addition, the relative viability with TGX 221 + Palbociclib (first compound 8 µM) is 0.44.

On to NCI-H2170, for which the relative viability was determined as 0.624 in assay [1] (first compound 0.08 µM); 0.617 in assay [1] (first compound 0.253 µM); 0.571 in assay [1] (first compound 0.8 µM); 0.687 in assay [1] (first compound 2.53 µM); 0.528 in assay [1] (first compound 8 µM); 0.995 in the assay with TGX 221 + Foretinib (first compound 0.08 µM). In addition, the relative viability was 1.1 in the assay with TGX 221 + Foretinib (first compound 0.253 µM); 0.991 with TGX 221 + Foretinib (first compound 0.8 µM); 0.945 with TGX 221 + Foretinib (first compound 2.53 µM); 0.978 with TGX 221 + Foretinib (first compound 8 µM); 0.471 in assay [2] (first compound 0.08 µM); 0.454 in assay [2] (first compound 0.253 µM). The relative viability in assay [2] (first compound 0.8 µM) came to 0.452; in assay [2] (first compound 2.53 µM), 0.482; with TGX 221 + Palbociclib (first compound 0.08 µM), 0.332; with TGX 221 + Palbociclib (first compound 0.253 µM) it was 0.423; in the assay with TGX 221 + Palbociclib (first compound 0.8 µM), 0.393; with TGX 221 + Palbociclib (first compound 2.53 µM) it was 0.365. The relative viability with TGX 221 + Palbociclib (first compound 8 µM) stood at 0.334.

As to NCI-H1915, the relative viability in assay [1] (first compound 0.08 µM) worked out at 0.298; in assay [1] (first compound 0.253 µM) it was 0.265; in assay [1] (first compound 0.8 µM) it was 0.262; in assay [1] (first compound 2.53 µM), 0.273; in assay [1] (first compound 8 µM), 0.246; with TGX 221 + Foretinib (first compound 0.08 µM), 0.941. The relative viability worked out at 1.07 with TGX 221 + Foretinib (first compound 0.253 µM); 1.08 in the assay with TGX 221 + Foretinib (first compound 0.8 µM); 1.04 with TGX 221 + Foretinib (first compound 2.53 µM); 1.05 with TGX 221 + Foretinib (first compound 8 µM); 0.276 in assay [2] (first compound 0.08 µM); 0.264 in assay [2] (first compound 0.253 µM). Besides, the relative viability in assay [2] (first compound 0.8 µM) stood at 0.245; in assay [2] (first compound 2.53 µM), 0.238; with TGX 221 + Palbociclib (first compound 0.08 µM) it was 0.491; in the assay with TGX 221 + Palbociclib (first compound 0.253 µM), 0.497; with TGX 221 + Palbociclib (first compound 0.8 µM), 0.536; with TGX 221 + Palbociclib (first compound 2.53 µM), 0.498. Besides, the relative viability with TGX 221 + Palbociclib (first compound 8 µM) turned out to be 0.473.

On to EPLC-272H, for which the relative viability worked out at 0.665 in assay [1] (first compound 0.08 µM); 0.753 in assay [1] (first compound 0.253 µM); 0.856 in assay [1] (first compound 0.8 µM); 0.917 in assay [1] (first compound 2.53 µM); 0.509 in assay [1] (first compound 8 µM); 0.628 with TGX 221 + Foretinib (first compound 0.08 µM). Also, the relative viability was 0.538 in the assay with TGX 221 + Foretinib (first compound 0.253 µM); 0.515 with TGX 221 + Foretinib (first compound 0.8 µM); 0.764 in the assay with TGX 221 + Foretinib (first compound 2.53 µM); 0.479 with TGX 221 + Foretinib (first compound 8 µM); 0.36 in assay [2] (first compound 0.253 µM); 0.368 in assay [2] (first compound 0.8 µM). For the same cell line, the relative viability in assay [2] (first compound 2.53 µM) came out at 0.325; in the assay with TGX 221 + Palbociclib (first compound 0.08 µM), 0.324; with TGX 221 + Palbociclib (first compound 0.253 µM), 0.35; with TGX 221 + Palbociclib (first compound 0.8 µM), 0.32; in the assay with TGX 221 + Palbociclib (first compound 2.53 µM) it was 0.328; in the assay with TGX 221 + Palbociclib (first compound 8 µM), 0.289.

Regarding NCI-H2087, the relative viability in assay [1] (first compound 0.08 µM) was found to be 0.513; in assay [1] (first compound 0.253 µM) it was 0.587; in assay [1] (first compound 0.8 µM), 0.667; in assay [1] (first compound 2.53 µM), 0.811; in assay [1] (first compound 8 µM), 0.496; in the assay with TGX 221 + Foretinib (first compound 0.08 µM), 1.01. Moreover, the relative viability stood at 1.01 with TGX 221 + Foretinib (first compound 0.253 µM); 1.09 with TGX 221 + Foretinib (first compound 0.8 µM); 1.04 in the assay with TGX 221 + Foretinib (first compound 2.53 µM); 1.1 with TGX 221 + Foretinib (first compound 8 µM); 0.23 in assay [2] (first compound 0.08 µM); 0.318 in assay [2] (first compound 0.253 µM). Further, the relative viability was found to be 0.24 in assay [2] (first compound 0.8 µM); 0.145 in assay [2] (first compound 2.53 µM); 0.214 with TGX 221 + Palbociclib (first compound 0.08 µM); 0.234 with TGX 221 + Palbociclib (first compound 0.253 µM); 0.237 with TGX 221 + Palbociclib (first compound 0.8 µM); 0.21 with TGX 221 + Palbociclib (first compound 2.53 µM). Moreover, in the assay with TGX 221 + Palbociclib (first compound 8 µM), the relative viability is 0.248.

As to A-427, the relative viability amounted to 0.781 in assay [1] (first compound 0.08 µM); 0.71 in assay [1] (first compound 0.253 µM); 0.849 in assay [1] (first compound 0.8 µM); 0.712 in assay [1] (first compound 2.53 µM); 0.793 in assay [1] (first compound 8 µM); 1.15 with TGX 221 + Foretinib (first compound 0.08 µM). The relative viability turned out to be 0.987 with TGX 221 + Foretinib (first compound 0.253 µM); 1.12 with TGX 221 + Foretinib (first compound 0.8 µM); 1.05 with TGX 221 + Foretinib (first compound 2.53 µM); 1.06 in the assay with TGX 221 + Foretinib (first compound 8 µM); 0.547 in assay [2] (first compound 0.08 µM); 0.591 in assay [2] (first compound 0.253 µM). Also, the relative viability in assay [2] (first compound 0.8 µM) was found to be 0.559; in assay [2] (first compound 2.53 µM) it was 0.558; in the assay with TGX 221 + Palbociclib (first compound 0.08 µM), 0.542; in the assay with TGX 221 + Palbociclib (first compound 0.253 µM), 0.546; in the assay with TGX 221 + Palbociclib (first compound 0.8 µM), 0.513; with TGX 221 + Palbociclib (first compound 2.53 µM), 0.504. Further, in the assay with TGX 221 + Palbociclib (first compound 8 µM), the relative viability was 0.516.

For the cell line EBC-1, the relative viability in assay [1] (first compound 0.08 µM) was determined as 0.741; in assay [1] (first compound 0.253 µM), 0.701; in assay [1] (first compound 0.8 µM), 0.664; in assay [1] (first compound 2.53 µM), 0.719; in assay [1] (first compound 8 µM), 0.587; with TGX 221 + Foretinib (first compound 0.08 µM), 0.0971. Besides, the relative viability with TGX 221 + Foretinib (first compound 0.253 µM) is 0.106; with TGX 221 + Foretinib (first compound 0.8 µM), 0.102; in the assay with TGX 221 + Foretinib (first compound 2.53 µM) it was 0.1; in the assay with TGX 221 + Foretinib (first compound 8 µM), 0.11.
